Reference: patent publication US20070167510A1, “Methods for inhibiting osteoclastogenesis” (priority 2006, published 2007)

Tests used:
MM.1S cells = test: Proliferation assay (3H-thymidine incorporation), MM.1S; type: cell-based, human; conditions: 48 hours
Description: (§1) DNA synthesis was measured by ^3H-thymidine incorporation (3H-TdR; NEN Products, Zaventem, Belgium). Cells were pulsed with ^3H-thymidine (1 μCi/well) during the last 8 hours of culture, harvested onto glassfibre filter mats (Wallac, Gaithersburg, Md.) with an automatic cell harvester (Tomtec Harvester 960 MachIII), and counted using Wallac TriLux Beta plate scintillation counter. All experiments were performed in triplicate.

OPM2 cells = test: Proliferation assay (3H-thymidine incorporation), OPM2; type: cell-based, human; conditions: 48 hours
Description: as §1

RPMI-8226 cells = test: Proliferation assay (3H-thymidine incorporation), RPMI-8226; type: cell-based, human; conditions: RPMI-1822 / RPMI cells as printed, 48 hours
Description: as §1

[1] = test system: non-adherent mononuclear bone marrow cells from healthy donors; type: cell-based
Description: (§2) Non-adherent mononuclear cells (10^5 cells/well) from either healthy donor or multiple myeloma patients, as well as purified human CD34^+ cells, were seeded in 96-well multi-plates at 100 μl/well in α-MEM medium containing 20% horse serum, 10 ng/ml M-CSF and 50 ng/ml RANKL. […] Half media change was carried out twice a week.
(§3) The culture was incubated for a total of 3 weeks at 37° C. in an incubator of 5% CO2-air. OCL formation was assessed by staining with monoclonal antibody 23c6, which recognizes the CD51/61 dimer on the osteoclast vitronectin receptor (generously provided by Michael Horton, Rayne Institute, Bone and Mineral Center, London, UK), using a Vectastatin-ABC-AP kit (Vector Laboratories, Inc. Burlingame, Calif.). The 23c6^+ multinucleated osteoclasts containing 3 or more nuclei per osteoclast were scored using an inverted microscope. For RAW 264.7 cells, OCL differentiation assay was carried out in 96-well plates. […] Half media change was performed every 2-3 days by replacing with fresh medium containing RANKL with or without tested drugs. Cells were fixed and stained with TRAP-staining kit (Sigma-Aldrich) according to the manufacturer's instructions. TRAP-positive multinuclear cells (>3 nuclei) were counted under the inverted microscope.

[2] = test system: non-adherent mononuclear bone marrow cells from multiple myeloma patients; test: Osteoclast formation assay, MM patient bone marrow; type: cell-based, human
Description: as §2, §3

[3] = test system: CFU-GM colony cells (osteoclast precursors); test: Osteoclast formation assay with purified CFU-GM cells; type: cell-based, human
[4] = test system: bone marrow cells from healthy donor on whale dentin slices; test: Osteoclastic bone resorption on dentin slices; type: cell-based, human; conditions: 3 weeks
Description: Bone marrow cells from healthy donor (2×10^5 cells/well) were seeded on whale dentin slices in 96-well multi-plates at 100 μl/well in α-MEM medium containing 20% horse serum. In addition, 10 ng/ml M-CSF and 50 ng/ml RANKL were added. Half media changes were performed twice a week with fresh media. […] Culture was continued for 3 weeks at 37° C. in an incubator of 5% CO2-air. After 3 weeks, dentin slices were stained with TRAP staining to confirm the osteoclast formation. Then, bone resorption lacunae were stained with hematoxylin. Pit area was quantified by using the public domain NIH ImageJ program. Fixed small representative areas on dentin slices selected and the mean resorption areas were determined.

[5] = test system: CD34+ cells (hematopoietic progenitors); test: Colony assays in methylcellulose; type: cell-based, human; conditions: 14 days
Description: Methocult GF H4434 contained the following hematopoietic growth factors: recombinant human (rh) Erythropoietin 3 U/ml, rh SCF 50 ng/ml, rh granulocyte-macrophage colony-stimulating factor (GM-CSF) 10 ng/ml, and rh IL-310 ng/ml as well as Methylcellulose (1%), Fetal Bovine Serum 30%, Bovine Serum Albumin (1%), 2-Mercaptoethanol ([…]), and L-glutamine (2 mM). Cells were incubated in at 37° C., 5% CO2 with 95% humidity for 14-16 days. Formation and relative distribution of burst forming unit-erythroid (BFU-E), colony forming unit-macrophages (CFU-M) and colony forming unit-granulocyte, macrophage (CFU-GM) colonies were evaluated by scoring under an inverted microscope. Each colony experiment was carried out in triplicate.

[6] = test system: MC-42 cells (MC3T3-E1 pre-osteoblastic); test: Osteoblast differentiation: ALP activity; type: cell-based, mouse; conditions: SDX-101 75 μM, SDX-308 7.5 μM, 24 hours
Text: (§4) Cells were then harvested for luciferase and ALP (alkaline phosphatase) activity assay. Luciferase and ALP activity were normalized to total protein content of the sample (Xiao G et al. (1997) Mol. Endocrinol. 11:1103-13). […] Samples were then stained using the Von Kossa method (Xiao G et al. (1998) J. Biol. Chem. 273:32988-94).

MC-42 cells = test: Osteoblast mineralization (von Kossa); type: cell-based, mouse; conditions: 48 hours, 5.0 mM inorganic phosphate
Text: as §4

MIP-1α = test: Bio-plex cytokine assay of osteoclast culture supernatants: MIP-1α; type: cell-based, human; conditions: day four; controls 12,000
Text: […] of IL-1α, IL-1β, IL-2, IL-3, IL-4, IL-5, IL-6, IL-7, IL-8, IL-9, IL-10, IL-13, IL-15, IL-17, IL-12p40, IFNα, IFNγ, TNF-α, TNFR-I, TNFR-II, G-CSF, GM-CSF, MCP-1, MIP-1α, MIP-1β, MIG, IP-10, EOTAXIN, RANTES, DR5, EGF, VEGF, FGF-b, and HGF by Bio-plex Cytokine Assay (BIO-RAD Laboratories, USA).

IFN-γ = test: Bio-plex cytokine assay of osteoclast culture supernatants: IFN-γ; type: cell-based, human; conditions: three weeks treatment
Description: (§5) Supernatants collected on day 5, 9, 12, 16 and 21 were analyzed for expression of IL-1α, IL-1β, IL-2, IL-3, IL-4, IL-5, IL-6, IL-7, IL-8, IL-9, IL-10, IL-13, IL-15, IL-17, IL-12p40, IFNα, IFNγ, TNF-α, TNFR-I, TNFR-II, G-CSF, GM-CSF, MCP-1, MIP-1α, MIP-1β, MIG, IP-10, EOTAXIN, RANTES, DR5, EGF, VEGF, FGF-b, and HGF by Bio-plex Cytokine Assay (BIO-RAD Laboratories, USA).

[7] = test system: MIG (monokine induced by IFN-gamma); test: Bio-plex cytokine assay of osteoclast culture supernatants: MIG; type: cell-based, human; conditions: three weeks treatment
Description: as §5

RAW 264.7 cells [8] = test: RANKL-induced OCL differentiation of RAW 264.7 cells (TRAP); type: cell-based, murine; conditions: 5 days, RANKL 50 ng/ml, SDX-101 75 μM, SDX-308 7.5 μM
Description: as §3

RAW 264.7 cells [9] = test: Cellular viability of RAW 264.7 cells; type: cell-based, mouse; conditions: data not shown
IκBα = test: Western blot of IκBα phosphorylation and degradation, MM.1S; type: cell-based, human
Description: For detection of p65 translocation, cellular nuclear and cytoplasmic extracts were prepared with Nuclear and Cytoplasmic Extraction Reagents (Pierce, Rockford, Ill.). Cell lysates (20-40 μg) were subjected to 10% sodium dodecyl sulfate-polyacrylamide gel electrophoresis and transferred to PVDF membrane (Millipore, Danvers, Mass.). The blots were probed with anti-p65, anti-phospho p65, anti-IκB-α, anti-phospho IκB-α, or anti-phospho IKK-γ (all from Cell Signaling, Beverly, Mass.), and beta-actin antibody (Amersham, Piscataway, N.J.). Immune complexes were detected using enhanced chemiluminescence (Amersham).

[10] = test system: MM cell lines and freshly isolated primary MM cells; conditions: Yasui H et al., 2005; cited from earlier work

With `CCc1cccc2c3c([nH]c12)[C@@](CC)(CC(=O)O)OCC3` [SDX-101, R-etodolac] the “concentration at which DNA synthesis (thymidine incorporation) was significantly inhibited” value (MM.1S cells) was 10 µM, the “concentration at which DNA synthesis (thymidine incorporation) was significantly inhibited” value (OPM2 cells) was 100 µM and the “concentration at which DNA synthesis (thymidine incorporation) was significantly inhibited” value (RPMI-8226 cells) was 100 µM. The “doses exhibiting inhibition of OCL formation” value ([1]; 3 weeks, RANKL 50 ng/ml, M-CSF 10 ng/ml) was “over 50 μM”, the “cell death during the 3 week OCL formation assay” value ([1]; any doses tested) was “No cell death was observed” and the “inhibition of OCL formation, time course of drug addition” value ([1]; healthy donor cells, SDX-101 75 μM, SDX-308 7.5 μM, 3 weeks vs first/last 1 or 2 weeks) was “significantly higher when drug was added during the entire 3 weeks”. The “inhibition of RANK-L/M-CSF-induced human osteoclastogenesis” value ([1]; healthy donor cultures, 21-day assay, SDX-101 30 to 100 μM, SDX-308 3 to 10 μM) was “dose-dependent inhibition”, the “inhibition of OCL formation, time course of drug addition” value ([2]; MM patient cells, SDX-101 75 μM, SDX-308 7.5 μM, 3 weeks vs first/last 1 or 2 weeks) was “significantly higher when drug was added during the entire 3 weeks” and the “inhibition of RANK-L/M-CSF-induced human osteoclastogenesis” value ([2]; MM patient cultures, 21-day assay, SDX-101 30 to 100 μM, SDX-308 3 to 10 μM) was “dose-dependent inhibition”. The “osteoclast inhibition by time point of drug addition” value ([3]; first 1, 2 or 3 weeks or last 1, 2 or 3 weeks) was “no differences in osteoclast inhibition”, the “osteoclast numbers formed from osteoclast progenitor cells” value ([3]; purified CFU-GM cells, 21 days) was “significantly decreased osteoclast numbers” and the “measured bone resorption area” value ([4]; 75 μM, untreated control 8.6) was 1.3 mm^2. For the same molecule, the bone resorption ([4]; SDX-101 75 μM, SDX-308 7.5 μM) was “inhibited significantly”, the “number of the CFU colonies formed compared to untreated cells” value ([5]; CD34+ cells) was “not significantly different” and the “interference with hematopoietic lineage commitment” value ([5]; SDX-101 30, 50, 75 μM, SDX-308 1, 5, 7.5 μM) was “none of the doses tested for both SDX derivatives interferes”. The ALP activity [6] was “did not decrease the ALP activity”, the “mineralization of osteoblasts (von Kossa staining)” value (MC-42 cells) was “did not inhibit mineralization” and the MIP-1α in supernatant (MIP-1α) was 6,000 pg/ML. For the same molecule, the “IFN-γ secretion in osteoclast formation assays” value (IFN-γ) was “significantly decreased”, the “MIG secretion in osteoclast formation assays” value [7] was “significantly decreased” and the “RANKL-induced OCL formation from RAW 264.7 cells” value (RAW 264.7 cells [8]) was “suppressed”. For the same molecule, the “cellular viability, drug alone” value (RAW 264.7 cells [9]) was “no significant effects”, the “TNF-induced IκBα phosphorylation and degradation” value (IκBα) was “minor or no obvious effect” and the apoptosis [10] was “induces apoptosis”.
